Experiments:
[1] = Binding affinity to alpha-synuclein A69C/F94W double-mutant (unknown origin) expressed in Escherichia coli BL21(DE3) cells assessed as binding constant for binding two molecule at 10 uM incubated for 10 mins by tryptophan fluorescence assay; design: species or system Homo sapiens
Alpha-synuclein [2] = molecular target: T1, Alpha-synuclein (Homo sapiens, UniProt P37840); test: Inhibition of wild type alpha-synuclein aggregation (unknown origin) expressed in Escherichia coli BL21 cells incubated for 30 days by thioflavin T based fluorescence assay
Alpha-synuclein [3] = molecular target: T1, Alpha-synuclein; test: Binding affinity to alpha-synuclein oligomer (unknown origin) expressed in Escherichia coli BL21(DE3) cells incubated for 30 mins by spectrofluorometric analysis
[4] = Binding affinity to alpha-synuclein A69C/F94W double-mutant (unknown origin) expressed in Escherichia coli BL21(DE3) cells assessed as binding constant for binding two molecule at 10 uM by absorption spectroscopy; design: species or system Homo sapiens
Alpha-synuclein [5] = molecular target: T1, Alpha-synuclein; test: Binding affinity to alpha-synuclein LMV 100 kDa (unknown origin) expressed in Escherichia coli BL21(DE3) cells incubated for 30 mins by spectrofluorometric analysis
Alpha-synuclein [6] = molecular target: T1, Alpha-synuclein; test: Binding affinity to alpha-synuclein preformed fibrils (unknown origin) expressed in Escherichia coli BL21(DE3) cells incubated for 30 mins by spectrofluorometric analysis
[7] = Binding affinity to alpha-synuclein A69C/F94W double-mutant (unknown origin) expressed in Escherichia coli BL21(DE3) cells assessed as binding constant for binding single molecule at 10 uM incubated for 10 mins by tryptophan fluorescence assay; design: species or system Homo sapiens
[8] = Binding affinity to alpha-synuclein Y39W/A69C double-mutant (unknown origin) expressed in Escherichia coli BL21(DE3) cells assessed as binding constant for binding single molecule at 10 uM incubated for 10 mins by fluorescence analysis; design: species or system Homo sapiens
[9] = Binding affinity to alpha-synuclein A69C/F94W double-mutant (unknown origin) expressed in Escherichia coli BL21(DE3) cells assessed as binding constant for binding single molecule at 10 uM incubated for 10 mins by fluorescence analysis; design: species or system Homo sapiens
[10] = Binding affinity to alpha-synuclein A69C/F94W double-mutant (unknown origin) expressed in Escherichia coli BL21(DE3) cells assessed as binding constant for binding single molecule at 10 uM by absorption spectroscopy; design: species or system Homo sapiens
[11] = Binding affinity to alpha-synuclein Y39W/A69C double-mutant (unknown origin) expressed in Escherichia coli BL21(DE3) cells assessed as binding constant for binding two molecule at 10 uM incubated for 10 mins by fluorescence analysis; design: species or system Homo sapiens
Alpha-synuclein [12] = molecular target: T1, Alpha-synuclein; test: Binding affinity to alpha-synuclein LMV 50 kDa (unknown origin) expressed in Escherichia coli BL21(DE3) cells incubated for 30 mins by spectrofluorometric analysis
[13] = Binding affinity to alpha-synuclein A69C/F94W double-mutant (unknown origin) expressed in Escherichia coli BL21(DE3) cells assessed as binding constant for binding two molecule at 10 uM incubated for 10 mins by fluorescence analysis; design: species or system Homo sapiens
Alpha-synuclein [14] = molecular target: T1, Alpha-synuclein; test: Inhibition of alpha-synuclein fibril formation (unknown origin) incubated for 24 hrs to 7 days by thioflavin S based fluorescence assay
Alpha-synuclein [15] = molecular target: T1, Alpha-synuclein; test: Binding affinity to alpha-synuclein (unknown origin) expressed in Escherichia coli BL21(DE3) by circular dichroism analysis

IC50 (Alpha-synuclein [2]) [µM] | Kd (Alpha-synuclein [3]) [µM] | Kd (Alpha-synuclein [5]) [µM] | Kd (Alpha-synuclein [6]) [µM] | Kd (Alpha-synuclein [12]) [µM] | IC50 (Alpha-synuclein [14]) [µM] | Kd (Alpha-synuclein [15]) [µM] | SMILES | Kd [1] [µM] | Kd [4] [µM] | Kd [7] [µM] | Kd [8] [µM] | Kd [9] [µM] | Kd [10] [µM] | Kd [11] [µM] | Kd [13] [µM]
162 | 2 | 5 | 0.5 | 6.5 | 0.22 |  | COc1cc(/C=C/C(=O)CC(=O)/C=C/c2ccc(O)c(OC)c2)ccc1O [CURCUMIN] | 20 | 21 | 58 | 0.56 | 0.69 | 10 | 0.85 | 7.7
 |  |  |  |  |  | 0.53 | CO/N=C(\C(=O)N[C@@H]1C(=O)N2C(C(=O)O)=C(CSc3nc(=O)c(=O)[nH]n3C)CS[C@H]12)c1csc(N)n1 [CEFTRIAXONE] |  |  |  |  |  |  |  | 

Source: ChEMBL document CHEMBL4699438, “Toward the discovery and development of effective modulators of α-synuclein amyloid aggregation” (Eur J Med Chem, 2019)
